Several values for one entry are separate records, joined by “and”; a condition that tells them apart may be missing. Equal entries are not always repeated. Where two headings read alike, the source gives them in different places.
How the values were obtained:
[1] = In vitro release (dialysis bag method) and release kinetics modelling; format: physicochemical
Description: The release medium was phosphate-buffered saline, prepared according to pharmacopeial standards and consisting of 0.02% KCl (w/v), 0.02% KH2PO4 (w/v), 0.116% Na2HPO4 (w/v), and 0.8% NaCl (w/v) (adjusted with 10 mM NaOH, pH 7.4) ([Anvisa, 2019]).
The dialysis bags containing CUR-loaded NCs were immersed in the phosphate-buffered saline medium at 37 °C with horizontal shaking at 50 rpm.
At predetermined intervals, 2 mL of the medium was withdrawn for analysis with a UV spectrophotometer (UV-1800, Shimadzu, Japan) at 427 nm. The experiments were conducted in triplicate (n = 3), with results reported as the percentage of drug released over time.
Evaluated models included zero-order (Equation 1), monoexponential (Equation 2), bi-exponential (Equation 3), Weibull (Equation 4), and Higuchi (Equation 5). F=k0·t (1) F=100 ·1−e^−k1·t (2) F=100·1−Ae^−αt+Be^−βt (3) F=100·1−e^−t^β/α (4) F=kH·t^0.5 (5) where F is the percentage of drug released at time t (h), k 0 is the zero-order release constant (h^−1), k 1 is the first-order release constant (h^−1), A and B represent the fractions of drug distributed in different phases, and α and β (h^−1) are the specific kinetic rate constants. k H represents the Higuchi release constant.
The drug release mechanism was further evaluated by fitting the data to the Peppas-Sahlin (Equation 6) and Korsmeyer-Peppas (Equation 7) models: F=k1· t^0.5+k2 ·t (6) F=kKP·t^n (7) where k 1 is the constant (h^−1) denoting the relative contribution of t ^0.5 dependent drug diffusion to drug release, k 2 is the constant (h^−1) denoting the relative contribution of t-dependent polymer relaxation to drug release, k KP is the kinetic constant of the Korsmeyer-Peppas model, and n is the diffusion exponent that indicates the drug transport mechanism.
The release profiles were plotted and fitted using different in vitro release models. The results of the in vitro drug release study were evaluated based on dissolution efficiency and independent/dependent kinetic models. Model selection was performed considering the highest correlation coefficient (R ^2) and the Akaike Information Criterion (AIC) ([Vieira et al., 2016]).

[2] = Stability of CUR in spiked S1 flies (whole-body fly homogenate supernatant); format: in vitro ADME, D. melanogaster
Description: (§1) This homogenate was prepared by weighing 0.02 g of whole flies, followed by adding 600 µL of acetonitrile and homogenizing with an Ultra-Turrax (T10, GmbH, Germany) for 30 s at 28,800 rpm. The mixture was centrifuged at 14,000 rpm for 10 min at 4 °C to obtain the whole-body fly homogenate supernatant (S1). Subsequently, 90 µL of S1 was spiked with 10 µL of each calibration standard and 10 µL of the IS. Deproteinization was achieved by adding 1,000 µL of acetonitrile and 10 µL of 0.2% HCl. The mixtures were vortexed for 5 min, then centrifuged at 14,000 rpm for 10 min at 4 °C. The supernatant was separated, evaporated to dryness using a centrifugal vacuum concentrator at 45 °C for 60 min, and the residue reconstituted in 100 µL of mobile phase.
(§2) Stability tests were performed under identical conditions for both matrices: room temperature for 6 h (22 °C ± 3 °C), in the autosampler for up to 24 h (22 °C ± 3 °C), after 60 days in a freezer (−80 °C ± 2 °C), and across three freeze-thaw cycles, with each thawing period at room temperature for approximately 2 h and refreezing for 12 h at −20 °C. For each species, three replicates at concentrations of 3 and 150 ng/mL were tested.
(§3) Samples were deemed stable if the results fell within the acceptable limits of accuracy (±15% of nominal concentration) and precision (±15% CV). For the LLOQ, the CV was not to exceed 20% ([FDA, 2018]; [ICH, 2019]).

[3] = Stability of CUR in spiked rat plasma; format: in vitro ADME; conditions: Plasma rats
Description: The rat plasma extraction was processed similarly to that of the flies, with 10 µL of each calibration standard sample mixed with 90 µL of blank rat plasma and 10 µL of the IS, followed by deproteinization with acetonitrile.
as §2, §3

[4] = Fly whole-body CUR quantification after 10-day dietary exposure, healthy flies; format: in vivo, D. melanogaster; conditions: both sexes, Drosophila melanogaster, whole-body homogenate, oral, 110 ng/mL in food medium for 10 days
Description: as §1
Adult healthy flies (1–3 days old) of both sexes were used, with each group consisting of 25 males and 25 females (n = 6 replicates/50 flies each). […] The medium was replaced every 3 days. The dosing and study design were based on our previous study ([Fernandes et al., 2023]).

[5] = Fly whole-body CUR quantification, lipopolysaccharide-induced inflammation; format: in vivo, D. melanogaster; conditions: LPS 250 μg/mL in food medium + 37 ng/mL for 10 days
Description: as §1

[6] = Pharmacokinetic study in rodents (non-compartmental analysis); format: in vivo, Wistar rats
Description: As described in our previous study, the NC-CUR was prepared via the interfacial deposition method of preformed polymers, ensuring the same final concentration ([Santos et al., 2021]). […] For the oral administration groups, blood sampling began 0.25 h post-gavage (Figure 1B). […] Pharmacokinetic parameters were calculated using non-compartmental analysis with PKanalix 2023R1 software (Lixoft, France). Plasma concentration-time profiles for each experimental group were analyzed individually.

[7] = ref Nakama et al., 2020; cited from earlier work
[8] = set-up: method as in Yang et al., 2007; conditions: rats; 500 mg kg; ref Yang et al., 2007; cited from earlier work
[9] = set-up: method as in Wang et al., 2018; conditions: mice; intravenous administration of 20 mg kg; ref Wang et al., 2018; cited from earlier work
healthy flies = test system: healthy flies; set-up: method as in Fernandes et al., 2023; conditions: ref Fernandes et al., 2023; cited from earlier work
[10] = nominal 3 ng/mL, 6 h (bench-top)
[11] = nominal 3 ng/mL, 24 h 6 h (bench-top)
[12] = nominal 3 ng/mL, Freeze-thaw cycles
[13] = nominal 150 ng/mL, 6 h (bench-top)
[14] = nominal 150 ng/mL, 24 h (autosampler)
[15] = nominal 150 ng/mL, 60 d (−80 °C)
[16] = nominal 150 ng/mL, Freeze-thaw cycles
[17] = male, Wistar, rat, plasma, iv, 2 mg/kg, Intravenous 2 mg/kg
[18] = male, Wistar, rat, plasma, Intravenous 2 mg/kg
[19] = male, Wistar, rat, plasma, Oral 6 mg/kg

drug released ([1]; at 6 h): 56.09%
drug released ([1]; at 12 h): 97.69% and ~100%
Accuracy [2, 10]: 84.45%
Mean ± SD [2, 10]: 2.74 ± 0.39 ng/mL
Accuracy [2, 11]: 114.19%
Mean ± SD [2, 11]: 3.23 ± 0.24 ng/mL
Accuracy ([2]; nominal 3 ng/mL, 60 d (−80 °C)): 103.03%
Mean ± SD ([2]; nominal 3 ng/mL, 60 d (−80 °C)): 3.09 ± 0.26 ng/mL
Accuracy [2, 12]: 106.81%
Mean ± SD [2, 12]: 3.20 ± 0.27 ng/mL
Accuracy [2, 13]: 94.59%
Mean ± SD [2, 13]: 144.26 ± 4.68 ng/mL
Accuracy [2, 14]: 89.72%
Mean ± SD [2, 14]: 142.32 ± 4.62 ng/mL
Accuracy [2, 15]: 98.39%
Mean ± SD [2, 15]: 147.59 ± 16.88 ng/mL
Accuracy [2, 16]: 95.99%
Mean ± SD [2, 16]: 143.99 ± 13.47 ng/mL
Mean ± SD [3, 10]: 2.58 ± 0.04 ng/mL
Accuracy [3, 11]: 98.08%
Mean ± SD [3, 11]: 2.94 ± 0.19 ng/mL
Accuracy ([3]; nominal 3 ng/mL, 60 d (−80 °C)): 86.28%
Mean ± SD ([3]; nominal 3 ng/mL, 60 d (−80 °C)): 2.58 ± 0.05 ng/mL
Accuracy [3, 12]: 86.23%
Mean ± SD [3, 12]: 2.58 ± 0.04 ng/mL
Accuracy [3, 13]: 99.1%
Mean ± SD [3, 13]: 148.64 ± 1.35 ng/mL
Accuracy [3, 14]: 99.84%
Mean ± SD [3, 14]: 149.75 ± 0.92 ng/mL
Accuracy [3, 15]: 98.84%
Mean ± SD [3, 15]: 148.26 ± 0.17 ng/mL
Accuracy [3, 16]: 99.1%
Mean ± SD [3, 16]: 148.64 ± 1.35 ng/mL
concentration at 10 days [4]: ~75 ng/mL
CUR concentration in whole-body homogenates [5]: markedly reduced CUR levels
kel ([6]; Intravenous 2 mg/kg): 0.75 h−¹
CL ([6]; Intravenous 2 mg/kg, 2 mg/kg): 7.71 L/h
t1/2 ([6]; Intravenous 2 mg/kg, 2 mg/kg): 1.17 h
AUC0-∞ ([6]; Intravenous 2 mg/kg, male Wistar rats, n = 9, 2 mg/kg): 100.41 ng·h/mL
kel ([6]; Oral 6 mg/kg): 0.54 h−¹
clearance [6, 17]: 125 mL/min
half-life [6, 17]: 1.77 ± 0.45 h
AUC(0-inf) ([6]; male, Wistar, rat, plasma, iv, 2 mg/kg, Intravenous 2 mg/kg, male Wistar rats, n = 9): 100 ± 24.4 ng·h/mL
half-life ([6]; male, Wistar, rat, plasma, po, 6 mg/kg, Oral 6 mg/kg): 1.7 h
AUC(0-inf) ([6]; male, Wistar, rat, plasma, po, 6 mg/kg, Oral 6 mg/kg, male Wistar rats, n = 12): 25.6 ng·h/mL
Cmax [6, 18]: 231 ng/mL
MRT [6, 18]: 0.79 h
Vd [6, 18]: 12.8 L
Cmax [6, 19]: 8.04 ng/mL
MRT [6, 19]: 3 h
Tmax [6, 19]: 1.31 h
bioavailability ([6]; male, Wistar, rat, plasma, Oral 6 mg/kg vs intravenous 2 mg/kg, read-out: Fabs (absolute bioavailability)): 8.48%
SMILES: COc1cc(/C=C/C(=O)CC(=O)/C=C/c2ccc(O)c(OC)c2)ccc1O [CUR, Curcumin]
B ([1]; Biexponencial model): 11.93 ± 2.50
α ([1]; Biexponencial model): 0.15 ± 0.02 h⁻¹
β ([1]; Biexponencial model): 0.17 ± 0.01 h⁻¹
A ([1]; Biexponencial model (chosen model), PBS pH 7.4): 78.99 ± 2.50
kH ([1]; Higuchi model): 18.05 ± 0.07 h⁻¹
k ([1]; Monoexponencial model, PBS pH 7.4): 0.14 ± 0.00 h⁻¹
α ([1]; Weibull model): 4.73 ± 0.06 h⁻¹
β ([1]; Weibull model): 0.82 ± 0.01 h⁻¹
k 0 ([1]; Zero order model, PBS pH 7.4): 2.57 ± 0.01 h⁻¹
Log P [7]: ~3.2
oral bioavailability (administered dose absorbed) [8]: about 1%
half-life [9]: approximately 32.4 min
concentrations producing increased survival and enhanced antioxidant defenses (healthy flies): above 300 μM
